Measurements reported in US12268702B2, “Antitumor pharmaceutical composition comprising azvudine and chemotherapeutic agent” (HENAN GENUINE BIOTECH CO., LTD., priority 2023, dated 2025).
Several values for one entry are separate records, joined by “and”; a condition that tells them apart may be missing. Equal values may be shown once.

How the values were obtained:
Assay type in all cases: in vivo
[1] = test system: OVCAR-8 human ovarian cancer model; experiment: OVCAR-8 human ovarian cancer subcutaneous xenograft tumor model; conditions: azvudine 1 mg/kg, paclitaxel 15 mg/kg, avastin 10 mg/kg, combinations 1 + 15 and 1 + 10 mg/kg; for T/C (%) / TGI (%) / Tumor volume (x ± S): 34th day after grouping; for average tumor volume: 34th day of administration
Protocol: (§1) OVCAR-8 cells were cultured in RPMI1640 medium containing 10% fetal bovine serum. OVCAR-8 cells in the exponential growth phase were collected, resuspended in PBS to an appropriate concentration and mixed with Matrigel at a ratio of 1:1. The resulting mixture was used for subcutaneous inoculation of tumor in mice.
1×10^7 OVCAR-8 cells were inoculated subcutaneously on the right side of female mice. When the average tumor volume achieved 174.25 mm^3, the mice were randomly divided into groups according to tumor size.
The experimental protocols for animal experiments in this experiment were reviewed and approved by the CrownBio IACUC committee. During the experiment, the animal experiments were performed in accordance with the requirements of AAALAC. After tumor inoculation was completed, the impact of tumor growth and treatment on normal behavior of animals was routinely monitored, specifically the activity of experimental animals, food intake and water intake, body weight gain or loss (body weight was measured twice a week), eye, hair and other abnormalities. The clinical symptoms observed during the experiment were recorded in the original data. The tumor volume was calculated according to the following formula: tumor volume (mm^3)=½×(a×b^2) (where a represents long diameter and b represents short diameter).
Relative tumor proliferation rate, T/C %, refers to the percentage value of the relative tumor volume or tumor weight of the treatment group and the control group at a certain time point, which was calculated as follows: • T/C %=TRTV/CRTV×100% (TRTV: the average RTV of the treatment group; CRTV: the average RTV of the vehicle control group; RTV=Vt/V0, where V0 is the tumor volume of the animal when grouped, and Vt is the tumor volume of the animal after treatment); • or T/C %=TTW/CTW×100% (TTW: the average tumor weight of the treatment group at the end of the experiment; CTW: the average tumor weight of the vehicle control group at the end of the experiment).
Relative tumor inhibition rate, TGI (%), was calculated according to the formula as follows: TGI %=(1−T/C)×100%. (T and C are the relative tumor volumes (RTV) or tumor weights (TW) of the treatment group and the control group at a specific time point).
To compare tumor volumes of different treatment groups on a given day, first the assumption of homogeneity of variance among all groups was tested using the Bartlett test. When the p-value of Bartlett's test was not less than 0.05, whether all group means were equal was tested using one-way ANOVA. If the p-value of the one-way ANOVA was less than 0.05, pairwise comparisons among all groups were conducted using Tukey's HSD test, or pairwise comparisons between each treatment group and control group were conducted using Dunnett's t-test. When the p-value of Bartlett's test was less than 0.05, whether the medians of all groups were equal was tested using Kruskal Wallis test. If the p-value of the Kruskal Wallis test was less than 0.05, pairwise comparisons among all groups or between each treatment group and control group were conducted using Conover test, and the corresponding p-value correction was performed according to the number of groups in the multiple test.

[2] = test system: Colo 205 human colon cancer model; experiment: Colo 205 human colon cancer subcutaneous xenograft tumor model
Protocol: Experimental animals were 68 (48 plus 20 spare mice) BALB/c female nude mice, 7-8 weeks old (the age of mice at the time of tumor cell inoculation) and weighing 15.7-20.7 g, which were purchased from Beijing VitalRiver Experimental Animal Technology Co., Ltd. Breeding environment was SPF grade. The experimental animals were all kept in an independent ventilated box with constant temperature and humidity. The temperature of the breeding room was 20-26° C., the humidity was 40-70%. The breeding room was ventilated 10-20 times per hour. The alternating time of day and night was 12 h/12 h. The mice were continuously supplied with cobalt 60 radiation sterilized mouse complete pellet feed, and had free access to the feed. The mice drank tap water (available after sterilization with high-pressure steam), which was continuously supplied using a water-drinking bottle, and had free access to water. The mouse box was a polysulfone mouse box, which was used after sterilization under high pressure, with a size of 325 mm×210 mm×180 mm.
as §1, with “Colo 205” for “OVCAR-8”, “mice. 5×10^6 Colo 205 cells were subcutaneously inoculated on the right side of female mice. The day of inoculation was defined as Day 0. When the average tumor volume reached 110.26 mm^3, the mice were randomly divided into groups according to tumor size.” for “mice.”
Relative tumor proliferation rate, T/C %, refers to the percentage value of the relative tumor volume or tumor weight of the treatment group and the control group at a certain time point, which was calculated as follows:
T/C %=TRTV/CRTV×100% (TRTV: the average RTV of the treatment group; CRTV: the average RTV of the vehicle control group; RTV=Vt/V0, where V0 is the tumor volume of the animal when grouped, and Vt is the tumor volume of the animal after treatment); • or T/C %=TTW/CTW×100% (TTW: the average tumor weight of the treatment group at the end of the experiment; CTW: the average tumor weight of the vehicle control group at the end of the experiment). • Relative tumor inhibition rate, TGI (%), was calculated according to the formula as follows: TGI %=(1−T/C)×100%. (T and C are the relative tumor volumes (RTV) or tumor weights (TW) of the treatment group and the control group at a specific time point).

[3] = test system: LoVo xenograft tumor model; experiment: LoVo human colon cancer subcutaneous xenograft tumor model; conditions: 21st day of administration, azvudine 1 mpk, capecitabine 400 mpk, combination 1 + 400 mpk; for Tumor volume (mm^3): BALB/c nude mice, p.o. QD x 3 weeks
Protocol: Human colon cancer cells LoVo (Cat. No.: ECACC-87060101) were cultured in vitro as a monolayer in F12K medium containing 10% fetal bovine serum, 100 U/mL penicillin and 100 μg/mL streptomycin, in a 37° C. and 5% CO2 incubator. The cells were routinely digested with trypsin-EDTA and passaged twice a week. When the cell saturation reached 80%-90% and the cell number achieved the requirement, the cells were collected, counted and inoculated.
0.1 mL)(10×10^6) of LoVo cells were subcutaneously inoculated on the right back of each mouse. The grouping administration was started when the average tumor volume reached about 147 mm^3.
The tumor volume changes and the tumor weight changes in each group (on the 21st day of administration) after administration of test drugs for treating BALB/c nude mice with Lovo cell subcutaneous xenograft tumor are shown in Table 5 and Table 6 respectively.

[4] = test system: Daudi xenograft tumor model; experiment: Human Burkitt's lymphoma cell Daudi subcutaneous xenograft tumor model; conditions: combination 1 + 50 mg/kg; for Tumor volume (mm^3) on the 27th day: CB 17 SCID mice, QD x 4 weeks, azvudine 1 mg/kg p.o., cyclophosphamide 50 mg/kg i.p.
Protocol: (§2) Human Burkitt's lymphoma cells Daudi (Cat. No.: DSMZ-ACC129) were in vitro suspended and cultured in RPMI 1640 medium containing 10% fetal bovine serum, 2 mM glutamine, 100 U/mL penicillin and 100 μg/mL streptomycin, in a 37° C. and 5% CO2 incubator. When the cell saturation achieved 80%-90% and the cell number reached the requirement, the cells were collected, counted and inoculated.
0.2 mL (10×10^6) of Daudi cells (added with Matrigel at a volume ratio of 1:1) were subcutaneously inoculated on the right back of each mouse. The grouping administration was started when the average tumor volume reached about 100 mm^3.
The changes of tumor volume and tumor weight in each group after administration of test drugs for treating CB 17 SCID mice with Daudi cell subcutaneous xenograft tumor are shown in Table 8 and Table 9 respectively.

[5] = test system: MOLT4 xenograft tumor model; experiment: Human acute lymphoblastic leukemia MOLT4 cell subcutaneous xenograft tumor model; conditions: combination 1 + 50 mg/kg; for Tumor volume (mm^3) on the 28th day: SCID Beige mice, QD x 4 weeks, azvudine 2 mg/kg in Table 10, cyclophosphamide 50 mg/kg i.p.
Protocol: as §2, with “acute lymphoblastic leukemia” for “Burkitt's lymphoma”, “MOLT4” for “Daudi”, “ECACC-85011413)” for “DSMZ-ACC129)”, “serum,” for “serum, 2 mM glutamine,”
0.2 mL (10×10^6) of MOLT4 cells (added with Matrigel at a volume ratio of 1:1) were subcutaneously inoculated on the right back of each mouse. The grouping administration was started when the average tumor volume reached about 148 mm^3.
The changes of tumor volume and tumor weight in each group after administration of test drugs for treating SCID Beige mice with MOLT4 cell subcutaneous xenograft tumor are shown in Table 10 and Table 11.

[6] = based on tumor volume, 25th day after inoculation, p.o. QD x 3 weeks, azvudine 1 mpk, capecitabine 400 mpk, combination 1 + 400 mpk
[7] = based on tumor weight, azvudine 1 mpk, capecitabine 400 mpk, combination 1 + 400 mpk
[8] = based on tumor volume, 27th day, azvudine 1 mg/kg, cyclophosphamide 50 mg/kg
[9] = based on tumor volume, 28th day, azvudine 2 mg/kg in Table 10, cyclophosphamide 50 mg/kg

## Avastin: positive drug avastin
[1]
  T/C (%): 82.30%
  TGI (%): 17.70%
  Tumor volume (x ± S): 456.04 ± 110.65(6)
  average tumor volume: 456.04 mm^3

## CC(=O)O[C@H]1C(=O)[C@@]2(C)[C@H]([C@H](OC(=O)c3ccccc3)[C@]3(O)C[C@H](OC(=O)[C@H](O)[C@@H](NC(=O)c4ccccc4)c4ccccc4)C(C)=C1C3(C)C)[C@]1(OC(C)=O)CO[C@@H]1C[C@@H]2O [Paclitaxel, paclitaxel]
[1]
  T/C (%): 73.51%
  TGI (%): 26.49%
  Tumor volume (x ± S): 403.40 ± 69.43(6)
  average tumor volume: 403.40 mm^3
[1]; listed as paclitaxel
  TGI (%): 26.49% and 26.5%

## CCCCCOC(=O)Nc1nc(=O)n([C@@H]2O[C@H](C)[C@@H](O)[C@H]2O)cc1F [Capecitabine, capecitabine]
[2]; 25th day after inoculation (20th day after grouping), BALB/c nude mice, p.o. QD x 3 weeks, azvudine 1 mpk, capecitabine 400 mpk, combination 1 + 400 mpk
  Tumor volume: 264.96 ± 38.65(6)
[2]; 25th day after tumor inoculation (20th day after grouping), azvudine 1 mg/kg, capecitabine 400 mg/kg, combination 1 + 400 mg/kg
  average tumor volume: 264.96 mm^3
[2]; [6]
  T/C (%): 18.07%
  TGI (%): 81.93%
[2]; [7]
  T/C (%): 85.92%
  TGI: 14.08
[2]; end of experiment, p.o. QD x 3 weeks, azvudine 1 mpk, capecitabine 400 mpk, combination 1 + 400 mpk
  Tumor weight (mg): 193.35 ± 28.54(6) mg
[3]
  Tumor volume (mm^3): 919 ± 190 mm^3
  Tumor weight: 0.893 ± 0.173 g
[3]; listed as capecitabine
  Tumor volume (mm^3): 919 mm^3
[3]; based on tumor volume
  T/C (%): 60.94%
  TGI (%): 42.11%
[3]; based on tumor volume, listed as capecitabine
  TGI (%): 42.11% and 42.1%
[3]; based on tumor weight
  T/C (%): 63.27%

## O=P1(N(CCCl)CCCl)NCCCO1 (centres unmarked) [Cyclophosphamide, cyclophosphamide]
[4]; 27th day of administration
  Tumor volume (mm^3) on the 27th day: 263 ± 54 mm^3
[4]; 27th day of administration, listed as cyclophosphamide
  Tumor volume (mm^3) on the 27th day: 263 mm^3
[4]; 27th day of administration, azvudine 1 mg/kg, cyclophosphamide 50 mg/kg
  Tumor weight (g) (On the 27th day): 0.343 ± 0.066 g
[4]; [8]
  T/C (%): 8.83%
  TGI (%): 94.17%
[4]; based on tumor weight, 27th day, azvudine 1 mg/kg, cyclophosphamide 50 mg/kg
  T/Cweight (%): 11.49%
[5]; 28th day of administration
  Tumor volume (mm^3) on the 28th day: 716 ± 76 mm^3
[5]; 28th day of administration, listed as cyclophosphamide CTX
  Tumor volume (mm^3) on the 28th day: 716 mm^3
[5]; 28th day of administration, azvudine 1 mg/kg, cyclophosphamide 50 mg/kg
  Tumor weight (g) (On the 28th day): 0.822 ± 0.065 g
[5]; [9]
  T/C (%): 24.53%
  TGI (%): 79.34%
[5]; based on tumor weight, 28th day, azvudine 1 mg/kg, cyclophosphamide 50 mg/kg
  T/Cweight (%): 27.65%
